Key:
Experiment in all cases: cells
Conditions in all cases: Homo sapiens
COLO-792 = assay type: functional, cell-based
Description: SANGER: Inhibition of human COLO-792 cell growth in a cell viability assay.

COR-L105 = assay type: functional, cell-based;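 also: cell growth inhibition determined with a viability assay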
Description: SANGER: Inhibition of human COR-L105 cell growth in a cell viability assay.

ChaGo-K-1 = assay type: functional, cell-based;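 also: growth inhibition of ChaGo-K-1 cells, read out with a cell viability assay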
Description: SANGER: Inhibition of human ChaGo-K-1 cell growth in a cell viability assay.

D-392MG = assay type: functional, cell-based
DBTRG-05MG = assay type: functional, cell-based;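 also: cell viability assay measuring growth inhibition of human DBTRG-05MG cells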
Description: SANGER: Inhibition of human DBTRG-05MG cell growth in a cell viability assay.

Detroit 562 = assay type: functional, cell-based;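 also: growth inhibition of human Detroit 562 cells, read out by a cell viability assay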
Description: SANGER: Inhibition of human Detroit562 cell growth in a cell viability assay.

EGI-1 = assay type: functional, cell-based;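 also: cell viability readout used to gauge growth inhibition of EGI-1 cells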
Description: SANGER: Inhibition of human EGI-1 cell growth in a cell viability assay.

ESS-1 = assay type: functional, cell-based;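 also: growth inhibition of human ESS-1 cells, read out by a cell viability assay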
Description: SANGER: Inhibition of human ESS-1 cell growth in a cell viability assay.

FaDu = assay type: functional, cell-based;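 also: cell viability readout of growth inhibition in FaDu cells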
Description: SANGER: Inhibition of human FADU cell growth in a cell viability assay.

G-402 = assay type: functional, cell-based
Description: SANGER: Inhibition of human G-402 cell growth in a cell viability assay.

GAMG = assay type: functional, cell-based;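 also: cell growth inhibition measured by a viability assay in the GAMG human cell line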
Description: SANGER: Inhibition of human GAMG cell growth in a cell viability assay.

HCC1954 = assay type: functional, cell-based;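 also: growth inhibition of human HCC1954 cells, read out with a cell viability assay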
Description: SANGER: Inhibition of human HCC1954 cell growth in a cell viability assay.

HEC-1 = assay type: functional, cell-based;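 also: growth inhibition of the cell line, read out with a cell viability assay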
Description: SANGER: Inhibition of human HEC-1 cell growth in a cell viability assay.

HOS = assay type: functional, cell-based;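 also: growth inhibition of human HOS cells, read out with a cell viability assay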
Description: SANGER: Inhibition of human HOS cell growth in a cell viability assay.

HuP-T4 = assay type: functional, cell-based;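 also: cell viability assay measuring how much HuP-T4 cell growth is inhibited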
Description: SANGER: Inhibition of human HuP-T4 cell growth in a cell viability assay.

JEG-3 = assay type: functional, cell-based;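 also: growth inhibition of human JEG-3 cells, read out with a cell viability assay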
Description: SANGER: Inhibition of human JEG-3 cell growth in a cell viability assay.

KYSE-450 = assay type: functional, cell-based;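 also: cell growth inhibition measured by a viability assay in human KYSE-450 cells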
Description: SANGER: Inhibition of human KYSE-450 cell growth in a cell viability assay.

M14 = assay type: functional, cell-based;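 also: growth inhibition of M14 cells, read out with a cell viability assay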
Description: SANGER: Inhibition of human M14 cell growth in a cell viability assay.

MDA-MB-231 = assay type: functional, cell-based
Description: SANGER: Inhibition of human MDA-MB-231 cell growth in a cell viability assay.

MDA-MB-415 = assay type: functional, cell-based
MHH-ES-1 = assay type: functional, cell-based;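 also: cell growth inhibition measured by a cell viability assay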
Description: SANGER: Inhibition of human MHH-ES-1 cell growth in a cell viability assay.

MKN-45 = assay type: functional, cell-based;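 also: growth inhibition of human MKN-45 cells, measured with a cell viability assay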
Description: SANGER: Inhibition of human MKN45 cell growth in a cell viability assay.

MOLT-13 = assay type: functional, cell-based;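 also: IC50 for suppression of MOLT-13 cell growth, read out with a cell viability assay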
Description: SANGER: Inhibition of human MOLT-13 cell growth in a cell viability assay.

NCI-H1437 = assay type: functional, cell-based;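 also: growth inhibition of human NCI-H1437 cells, read out by a cell viability assay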
Description: SANGER: Inhibition of human NCI-H1437 cell growth in a cell viability assay.

NCI-H1703 = assay type: functional, cell-based;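 also: growth inhibition of NCI-H1703 cells, read out via a cell viability assay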
Description: SANGER: Inhibition of human NCI-H1703 cell growth in a cell viability assay.

NCI-H2030 = assay type: functional, cell-based;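 also: growth inhibition of human NCI-H2030 cells, read out by a cell viability assay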
Description: SANGER: Inhibition of human NCI-H2030 cell growth in a cell viability assay.

NCI-H28 = assay type: functional, cell-based;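 also: growth inhibition of human NCI-H28 cells, read out as cell viability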
Description: SANGER: Inhibition of human NCI-H28 cell growth in a cell viability assay.

NCI-H727 = assay type: functional, cell-based;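 also: growth inhibition of human NCI-H727 cells, read out with a cell viability assay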
Description: SANGER: Inhibition of human NCI-H727 cell growth in a cell viability assay.

NY = assay type: functional, cell-based
Description: SANGER: Inhibition of human NY cell growth in a cell viability assay.

Panc1005 = assay type: functional, cell-based;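 also: growth inhibition of human PANC-10-05 cells, measured by a cell viability assay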
Description: SANGER: Inhibition of human PANC-10-05 cell growth in a cell viability assay.

RPMI-2650 = assay type: functional, cell-based
Description: SANGER: Inhibition of human RPMI-2650 cell growth in a cell viability assay.

SK-N-AS = assay type: functional, cell-based;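 also: growth inhibition of human SK-N-AS cells, measured with a cell viability assay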
Description: SANGER: Inhibition of human SK-N-AS cell growth in a cell viability assay.

SNU-423 = assay type: functional, cell-based
Description: SANGER: Inhibition of human SNU-423 cell growth in a cell viability assay.

SW1417 = assay type: functional, cell-based;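 also: growth inhibition of human SW1417 cells, read out with a cell viability assay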
Description: SANGER: Inhibition of human SW1417 cell growth in a cell viability assay.

SW626 = assay type: functional, cell-based;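 also: growth inhibition of SW626 cells, measured with a cell viability assay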
Description: SANGER: Inhibition of human SW626 cell growth in a cell viability assay.

SAOS-2 = assay type: functional, cell-based;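 also: growth inhibition of human Saos-2 cells determined by a cell viability assay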
Description: SANGER: Inhibition of human Saos-2 cell growth in a cell viability assay.

SiHa = assay type: functional, cell-based;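 also: Viability-based readout of growth inhibition in SiHa cells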
Description: SANGER: Inhibition of human SiHa cell growth in a cell viability assay.

T98G = assay type: functional, cell-based;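 also: growth inhibition of T98G cells, read out by a cell viability assay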
Description: SANGER: Inhibition of human T98G cell growth in a cell viability assay.

8305C = assay type: functional, cell-based
Description: SANGER: Inhibition of human 8305C cell growth in a cell viability assay.

A2780 = assay type: functional, cell-based;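 also: growth inhibition of A2780 cells, read out with a cell viability assay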
Description: SANGER: Inhibition of human A2780 cell growth in a cell viability assay.

ACHN = assay type: functional, cell-based;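 also: cell viability read-out used to gauge how strongly growth of human ACHN cells is suppressed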
Description: SANGER: Inhibition of human ACHN cell growth in a cell viability assay.

BFTC-909 = assay type: functional, cell-based
Description: SANGER: Inhibition of human BFTC-909 cell growth in a cell viability assay.

C3A = assay type: functional, cell-based;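 also: growth inhibition of C3A human cells, quantified with a cell viability readout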
Description: SANGER: Inhibition of human C3A cell growth in a cell viability assay.

CAL-12T = assay type: functional, cell-based;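 also: growth inhibition of human CAL-12T cells, read out with a cell viability assay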
Description: SANGER: Inhibition of human CAL-12T cell growth in a cell viability assay.

U-118-MG = assay type: functional, cell-based
Description: SANGER: Inhibition of human U-118-MG cell growth in a cell viability assay.

U2OS = assay type: functional, cell-based, U-2-OS;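 also: growth inhibition of human U-2-OS cells, determined with a cell viability assay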
Description: SANGER: Inhibition of human U-2-OS cell growth in a cell viability assay.

CAMA-1 = assay type: functional, cell-based;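 also: growth inhibition of CAMA-1 cells, read out with a cell viability assay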
Description: SANGER: Inhibition of human CAMA-1 cell growth in a cell viability assay.

CHL-1 = assay type: functional, cell-based;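 also: cell growth inhibition, read out with a cell viability assay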
Description: SANGER: Inhibition of human CHL-1 cell growth in a cell viability assay.

COLO-678 = assay type: functional, cell-based
Description: SANGER: Inhibition of human COLO-678 cell growth in a cell viability assay.

COLO-679 = assay type: functional, cell-based
Description: SANGER: Inhibition of human COLO-679 cell growth in a cell viability assay.

Cc1ccc(-n2nc(C(C)(C)C)cc2NC(=O)Nc2ccc(OCCN3CCOCC3)c3ccccc23)cc1 [DORAMAPIMOD]
IC50 (COLO-792): > 10000 nM
IC50 (COR-L105): > 10000 nM
IC50 (ChaGo-K-1): > 10000 nM
IC50 (D-392MG): > 10000 nM
IC50 (DBTRG-05MG): > 10000 nM
IC50 (Detroit 562): > 10000 nM
IC50 (EGI-1): > 10000 nM
IC50 (ESS-1): > 10000 nM
IC50 (FaDu): > 10000 nM
IC50 (G-402): > 10000 nM
IC50 (GAMG): > 10000 nM
IC50 (HCC1954): > 10000 nM
IC50 (HEC-1): > 10000 nM
IC50 (HOS): > 10000 nM
IC50 (HuP-T4): > 10000 nM
IC50 (JEG-3): > 10000 nM
IC50 (KYSE-450): > 10000 nM
IC50 (M14): > 10000 nM
IC50 (MDA-MB-231): > 10000 nM
IC50 (MDA-MB-415): > 10000 nM
IC50 (MHH-ES-1): > 10000 nM
IC50 (MKN-45): > 10000 nM
IC50 (MOLT-13): > 10000 nM
IC50 (NCI-H1437): > 10000 nM
IC50 (NCI-H1703): > 10000 nM
IC50 (NCI-H2030): > 10000 nM
IC50 (NCI-H28): > 10000 nM
IC50 (NCI-H727): > 10000 nM
IC50 (NY): > 10000 nM
IC50 (Panc1005): > 10000 nM
IC50 (RPMI-2650): > 10000 nM
IC50 (SK-N-AS): > 10000 nM
IC50 (SNU-423): > 10000 nM
IC50 (SW1417): > 10000 nM
IC50 (SW626): > 10000 nM
IC50 (SAOS-2): > 10000 nM
IC50 (SiHa): > 10000 nM
IC50 (T98G): > 10000 nM
IC50 (8305C): > 10000 nM
IC50 (A2780): > 10000 nM
IC50 (ACHN): > 10000 nM
IC50 (BFTC-909): > 10000 nM
IC50 (C3A): > 10000 nM
IC50 (CAL-12T): > 10000 nM
IC50 (U-118-MG): > 10000 nM
IC50 (U2OS): > 10000 nM
IC50 (CAMA-1): > 10000 nM
IC50 (CHL-1): > 10000 nM
IC50 (COLO-678): > 10000 nM
IC50 (COLO-679): > 10000 nM

CN(NC(=O)CC(=O)NN(C)C(=S)c1ccccc1)C(=S)c1ccccc1 [ELESCLOMOL]
IC50 (COLO-792): 28.8 nM
IC50 (COR-L105): 6.76 nM
IC50 (ChaGo-K-1): 5.4 nM
IC50 (D-392MG): 78.7 nM
IC50 (DBTRG-05MG): 9.77 nM
IC50 (Detroit 562): 68.9 nM
IC50 (EGI-1): 8.38 nM
IC50 (ESS-1): 102 nM
IC50 (FaDu): 5.66 nM
IC50 (G-402): 16.2 nM
IC50 (GAMG): 2.51 nM
IC50 (HCC1954): > 200 nM
IC50 (HEC-1): 8.25 nM
IC50 (HOS): 2.53 nM
IC50 (HuP-T4): 20.7 nM
IC50 (JEG-3): 8.84 nM
IC50 (KYSE-450): 39 nM
IC50 (M14): 122 nM
IC50 (MDA-MB-231): 19 nM
IC50 (MDA-MB-415): 137 nM
IC50 (MHH-ES-1): 5.69 nM
IC50 (MKN-45): 28.7 nM
IC50 (MOLT-13): > 200 nM
IC50 (NCI-H1437): 87.7 nM
IC50 (NCI-H1703): 3.68 nM
IC50 (NCI-H2030): 26.4 nM
IC50 (NCI-H28): 13.7 nM
IC50 (NCI-H727): > 200 nM
IC50 (NY): 37.6 nM
IC50 (Panc1005): 110 nM
IC50 (RPMI-2650): 34.1 nM
IC50 (SK-N-AS): 30 nM
IC50 (SNU-423): 15.2 nM
IC50 (SW1417): > 200 nM
IC50 (SW626): 54 nM
IC50 (SAOS-2): 11.1 nM
IC50 (SiHa): 31.1 nM
IC50 (T98G): 34.3 nM
IC50 (8305C): 192 nM
IC50 (A2780): 0.594 nM
IC50 (ACHN): > 200 nM
IC50 (BFTC-909): 63.5 nM
IC50 (C3A): > 200 nM
IC50 (CAL-12T): 63 nM
IC50 (U-118-MG): > 200 nM
IC50 (U2OS): 19.7 nM
IC50 (CAMA-1): > 200 nM
IC50 (CHL-1): 2.81 nM
IC50 (COLO-678): 42.5 nM
IC50 (COLO-679): 14.1 nM

Source: ChEMBL document CHEMBL1201861, “Genomics of Drug Sensitity in Cancer screening data, Wellcome Trust Sanger Institute”
